Reference: US20210196720A1 (UROVANT SCIENCES GMBH, priority 2018, published 2021)
One block for each compound: values may come before it.

Experiments:
clinical = conditions: human, in vivo
[1] = Phase 2b OAB study, cardiovascular safety (HR, SBP, DBP, orthostatic AEs); format: in vivo, human; conditions: 4 mg
Excerpt: None led to discontinuation. The overall incidence of orthostatic symptoms was low.
Small differences in the percent of subjects exceeding categorical heart rate and blood pressure thresholds for vibegron were similar to those in the tolterodine arm.

[2] = Phase 2b OAB study, adverse events
Excerpt: A placebo group was included in the main study, and a group that received tolterodine monotherapy was included in the main study and in the extension.

[3] = Drug interaction: effect of vibegron on conmed PK; conditions: human, in vivo, 4 mg
[4] = Mass balance study with [14C]vibegron, healthy subjects; conditions: human plasma, 2 and 4 hr
Excerpt: The accumulation potential of circulating metabolites in plasma was not estimated due to insufficient data from later time points to enable estimation of half-life.

[5] = cited from earlier work

- AUC (clinical; 0.15 mg): 31 ng·h/mL
- Cmax (clinical; 0.15 mg): 2.07 ng/mL
SMILES: C#C[C@]1(O)CC[C@H]2[C@@H]3CCC4=CC(=O)CC[C@@H]4[C@H]3CC[C@@]21CC [LNG, levonorgestrel]

SMILES: Cc1ccc(O)c([C@H](CCN(C(C)C)C(C)C)c2ccccc2)c1 [Tolterodine ER, reference compound]
- DBP change from baseline, mean (95% CI) max, week 1 to 8 [1]: 5.19 (4.26, 6.13) mm Hg
- DBP change from baseline, mean (95% CI), week 1 [1]: −0.12 (−1.10, 0.86) mm Hg
- HR change from baseline, mean (95% CI) maximum, week 1 to 8 [1]: 5.66 (4.69, 6.63) bpm
- HR change from baseline, mean (95% CI), week 1 [1]: 0.68 (−0.31, 1.67) bpm
- SBP change from baseline, mean (95% CI) maximum, week 1 to 8 [1]: 7.29 (6.01, 8.57) mm Hg
- SBP change from baseline, mean (95% CI), week 1 [1]: 0.04 (−1.36, 1.43) mm Hg
- Discontinuation due to drug-related AE, subjects ([2]; first 12 weeks, dose group by column): 0 n
- frequency of injuries ([2]; human, in vivo): 2.1%
- Cmax [3]: 2.28 ng/mL

- AUC (clinical; 0.03 mg): 0.81 ng·h/mL
- Cmax (clinical; 0.03 mg): 0.0719 ng/mL
SMILES: C#C[C@]1(O)CC[C@H]2[C@@H]3CCc4cc(O)ccc4[C@H]3CC[C@@]21C [EE, ethinyl estradiol]

- share of total circulating drug-related material [4]: 12-14%
SMILES: O=C(O)C1OC(OC(c2ccccc2)C2CCC(Cc3ccc(NC(=O)C4CCc5nccc(=O)n54)cc3)N2)C(O)C(O)C1O (stereo not shown) [M7]

SMILES: O=C(O)c1cccc(-c2cccc(NCCNC[C@H](O)c3cccc(Cl)c3)c2)c1 [solabegron]
- number of pain- and discomfort-free days vs placebo ([5]; Phase IIa, IBS, females): statistically significant increase
- clinical benefit ([5]; Phase IIa, IBS, male subjects): no clinical benefit
- bowel function and plasma somatostatin concentration ([5]; healthy volunteers): no effect
- gastrointestinal or colonic transit ([5]; healthy volunteers): did not significantly alter

- AUC (clinical; 0.25 mg): 16.6 ng·h/mL
SMILES: C[C@H]1O[C@@H](O[C@H]2[C@@H](O)C[C@H](O[C@H]3[C@@H](O)C[C@H](O[C@H]4CC[C@@]5(C)[C@H](CC[C@@H]6[C@@H]5C[C@@H](O)[C@]5(C)[C@@H](C7=CC(=O)OC7)CC[C@]65O)C4)O[C@@H]3C)O[C@@H]2C)C[C@H](O)[C@@H]1O [Digoxin]
